Reference: the NIST ThermoML archive (doi:10.1016/j.jct.2014.01.006)
“And” between values parts separate entries of the source, which are not always exact repeats. Identical values can stand only once.

Columns and labels:
[1] = Molar enthalpy of transition or fusion; conditions: Crystal; Adiabatic calorimetry
[2] = for vapor or sublimation pressure: Liquid, Ebulliometric method (Recirculating still); for Triple point temperature: Adiabatic calorimetry
[3] = molar heat capacity at saturation pressure

c1ccc(-c2ccc3ccccc3c2)cc1 [2-phenylnaphthalene]
Conditions	Molar enthalpy of transition or fusion [kcal/mol]
[1]	5.406

[2]
Conditions	Triple point temperature [K]	vapor or sublimation pressure [kPa]
482.85 K	–	1.996
502.83 K	–	3.998
511.75 K	–	5.335
524.93 K	–	7.993
534.9 K	–	10.67
542.89 K	–	13.33
551.2 K	–	16.66
558.16 K	–	19.95
567.23 K	–	25.03
576.35 K	–	31.16
585.57 K	–	38.56
594.82 K	–	47.36
604.12 K	–	57.8
Crystal	374.77	–
Metastable crystal	331.4	–

[3]
Conditions	molar heat capacity
5.559 K, Metastable crystal, Vacuum adiabatic calorimetry	0.7317 J/K/mol
6.48 K, Metastable crystal, Vacuum adiabatic calorimetry	1.172 J/K/mol
7.437 K, Metastable crystal, Vacuum adiabatic calorimetry	1.821 J/K/mol
8.415 K, Metastable crystal, Vacuum adiabatic calorimetry	2.519 J/K/mol
9.445 K, Metastable crystal, Vacuum adiabatic calorimetry	3.484 J/K/mol
10.55 K, Metastable crystal, Vacuum adiabatic calorimetry	4.639 J/K/mol
11.76 K, Metastable crystal, Vacuum adiabatic calorimetry	5.912 J/K/mol
13.12 K, Metastable crystal, Vacuum adiabatic calorimetry	7.541 J/K/mol
14.58 K, Metastable crystal, Vacuum adiabatic calorimetry	9.304 J/K/mol
16.16 K, Metastable crystal, Vacuum adiabatic calorimetry	11.42 J/K/mol
17.89 K, Metastable crystal, Vacuum adiabatic calorimetry	13.64 J/K/mol
19.78 K, Metastable crystal, Vacuum adiabatic calorimetry	16.13 J/K/mol
21.84 K, Metastable crystal, Vacuum adiabatic calorimetry	18.86 J/K/mol
24.08 K, Metastable crystal, Vacuum adiabatic calorimetry	21.79 J/K/mol
26.55 K, Metastable crystal, Vacuum adiabatic calorimetry	25.04 J/K/mol
29.3 K, Metastable crystal, Vacuum adiabatic calorimetry	28.54 J/K/mol
32.36 K, Metastable crystal, Vacuum adiabatic calorimetry	32.33 J/K/mol
35.77 K, Metastable crystal, Vacuum adiabatic calorimetry	36.35 J/K/mol
39.57 K, Metastable crystal, Vacuum adiabatic calorimetry	40.62 J/K/mol
43.81 K, Metastable crystal, Vacuum adiabatic calorimetry	45.16 J/K/mol
48.55 K, Metastable crystal, Vacuum adiabatic calorimetry	49.75 J/K/mol
53.87 K, Metastable crystal, Vacuum adiabatic calorimetry	54.71 J/K/mol
54.57 K, Metastable crystal, Vacuum adiabatic calorimetry	55.24 J/K/mol
59.82 K, Metastable crystal, Vacuum adiabatic calorimetry	59.78 J/K/mol
59.83 K, Metastable crystal, Vacuum adiabatic calorimetry	59.82 J/K/mol
65.64 K, Metastable crystal, Vacuum adiabatic calorimetry	64.42 J/K/mol
66.41 K, Metastable crystal, Vacuum adiabatic calorimetry	64.99 J/K/mol
72.14 K, Metastable crystal, Vacuum adiabatic calorimetry	69.36 J/K/mol
79.33 K, Metastable crystal, Vacuum adiabatic calorimetry	74.52 J/K/mol
84.66 K, Metastable crystal, Vacuum adiabatic calorimetry	78.26 J/K/mol
87.38 K, Metastable crystal, Vacuum adiabatic calorimetry	80.02 J/K/mol
91.53 K, Metastable crystal, Vacuum adiabatic calorimetry	82.9 J/K/mol
96.29 K, Metastable crystal, Vacuum adiabatic calorimetry	86.19 J/K/mol
100.11 K, Metastable crystal, Vacuum adiabatic calorimetry	88.71 J/K/mol
109.67 K, Metastable crystal, Vacuum adiabatic calorimetry	95.07 J/K/mol
119.51 K, Metastable crystal, Vacuum adiabatic calorimetry	101.67 J/K/mol
129.29 K, Metastable crystal, Vacuum adiabatic calorimetry	108.34 J/K/mol
139.13 K, Metastable crystal, Vacuum adiabatic calorimetry	115.15 J/K/mol
149.04 K, Metastable crystal, Vacuum adiabatic calorimetry	122.22 J/K/mol
159.05 K, Metastable crystal, Vacuum adiabatic calorimetry	129.45 J/K/mol
169.13 K, Metastable crystal, Vacuum adiabatic calorimetry	137.04 J/K/mol
179.22 K, Metastable crystal, Vacuum adiabatic calorimetry	144.69 J/K/mol
189.28 K, Metastable crystal, Vacuum adiabatic calorimetry	152.55 J/K/mol
199.33 K, Metastable crystal, Vacuum adiabatic calorimetry	160.58 J/K/mol
210.43 K, Metastable crystal, Vacuum adiabatic calorimetry	169.63 J/K/mol
222.54 K, Metastable crystal, Vacuum adiabatic calorimetry	179.67 J/K/mol
234.7 K, Metastable crystal, Vacuum adiabatic calorimetry	190.12 J/K/mol
246.9 K, Metastable crystal, Vacuum adiabatic calorimetry	200.49 J/K/mol
260.13 K, Metastable crystal, Vacuum adiabatic calorimetry	212.11 J/K/mol
274.34 K, Metastable crystal, Vacuum adiabatic calorimetry	224.81 J/K/mol
281.75 K, Metastable crystal, Vacuum adiabatic calorimetry	231.62 J/K/mol
287.18 K, Metastable crystal, Vacuum adiabatic calorimetry	236.87 J/K/mol
288.45 K, Metastable crystal, Vacuum adiabatic calorimetry	238 J/K/mol
288.88 K, Metastable crystal, Vacuum adiabatic calorimetry	238.28 J/K/mol
289.67 K, Metastable crystal, Vacuum adiabatic calorimetry	239.32 J/K/mol
290.86 K, Metastable crystal, Vacuum adiabatic calorimetry	240.77 J/K/mol
297.62 K, Metastable crystal, Vacuum adiabatic calorimetry	247.26 J/K/mol
302.22 K, Metastable crystal, Vacuum adiabatic calorimetry	251.81 J/K/mol
303.66 K, Metastable crystal, Vacuum adiabatic calorimetry	253.46 J/K/mol
304.26 K, Metastable crystal, Vacuum adiabatic calorimetry	253.82 J/K/mol
305.95 K, Metastable crystal, Vacuum adiabatic calorimetry	255.73 J/K/mol
316.27 K, Metastable crystal, Vacuum adiabatic calorimetry	265.74 J/K/mol
319.32 K, Metastable crystal, Vacuum adiabatic calorimetry	269.07 J/K/mol
319.63 K, Metastable crystal, Vacuum adiabatic calorimetry	269.43 J/K/mol
323.18 K, Metastable crystal, Vacuum adiabatic calorimetry	273.51 J/K/mol
328.64 K, Metastable crystal, Vacuum adiabatic calorimetry	281.65 J/K/mol
334.1 K, Crystal, Vacuum adiabatic calorimetry	295.45 J/K/mol
339.55 K, Crystal, Vacuum adiabatic calorimetry	300.3 J/K/mol
340.55 K, Crystal, Vacuum adiabatic calorimetry	301.83 J/K/mol
345.85 K, Crystal, Vacuum adiabatic calorimetry	308.66 J/K/mol
346.7 K, Crystal, Vacuum adiabatic calorimetry	310.38 J/K/mol
352.89 K, Crystal, Vacuum adiabatic calorimetry	319.98 J/K/mol
354.52 K, Crystal, Vacuum adiabatic calorimetry	323.81 J/K/mol
355.25 K, Crystal, Vacuum adiabatic calorimetry	323.51 J/K/mol
356.41 K, Crystal, Vacuum adiabatic calorimetry	326.01 J/K/mol
360.85 K, Crystal, Vacuum adiabatic calorimetry	334.71 J/K/mol
364.78 K, Crystal, Vacuum adiabatic calorimetry	343.22 J/K/mol
365.47 K, Crystal, Vacuum adiabatic calorimetry	344.57 J/K/mol
365.99 K, Crystal, Vacuum adiabatic calorimetry	347.25 J/K/mol
368.76 K, Crystal, Vacuum adiabatic calorimetry	353.17 J/K/mol
381.15 K, Liquid, Vacuum adiabatic calorimetry	364.06 J/K/mol
381.64 K, Liquid, Vacuum adiabatic calorimetry	364.18 J/K/mol
382.95 K, Liquid, Vacuum adiabatic calorimetry	365.06 J/K/mol
388.39 K, Liquid, Vacuum adiabatic calorimetry	368.05 J/K/mol
390.22 K, Liquid, Vacuum adiabatic calorimetry	369.13 J/K/mol
405.19 K, Liquid, Vacuum adiabatic calorimetry	377.51 J/K/mol
410.1 K, Liquid, Small sample (50 mg) DSC	380.3 J/K/mol and 382.63 J/K/mol
422.04 K, Liquid, Vacuum adiabatic calorimetry	386.86 J/K/mol
430 K, Liquid, Small sample (50 mg) DSC	394.6 J/K/mol and 391.03 J/K/mol
436.24 K, Liquid, Vacuum adiabatic calorimetry	394.72 J/K/mol
450 K, Liquid, Small sample (50 mg) DSC	405.58 J/K/mol and 401.51 J/K/mol
470.1 K, Liquid, Small sample (50 mg) DSC	411.15 J/K/mol and 413.48 J/K/mol
490 K, Liquid, Small sample (50 mg) DSC	424.7 J/K/mol and 423.46 J/K/mol
510 K, Liquid, Small sample (50 mg) DSC	434.93 J/K/mol and 427.36 J/K/mol
530.1 K, Liquid, Small sample (50 mg) DSC	446.82 J/K/mol and 444.24 J/K/mol
550.1 K, Liquid, Small sample (50 mg) DSC	457.21 J/K/mol and 455.97 J/K/mol
570.1 K, Liquid, Small sample (50 mg) DSC	468.27 J/K/mol and 467.27 J/K/mol
590.1 K, Liquid, Small sample (50 mg) DSC	477.92 J/K/mol and 476.09 J/K/mol
610.1 K, Liquid, Small sample (50 mg) DSC	484.48 J/K/mol and 484.15 J/K/mol
